Measured values reported in article PMC8116649 (Frontiers in Pharmacology, 2021).
Read-outs that look alike come from different tables or passages of the source.

Columns and labels:
CYP1A2 [1] = molecular target: T1, CYP1A2 (Homo sapiens, UniProt P05177)
T1 sequence (P05177 1-516): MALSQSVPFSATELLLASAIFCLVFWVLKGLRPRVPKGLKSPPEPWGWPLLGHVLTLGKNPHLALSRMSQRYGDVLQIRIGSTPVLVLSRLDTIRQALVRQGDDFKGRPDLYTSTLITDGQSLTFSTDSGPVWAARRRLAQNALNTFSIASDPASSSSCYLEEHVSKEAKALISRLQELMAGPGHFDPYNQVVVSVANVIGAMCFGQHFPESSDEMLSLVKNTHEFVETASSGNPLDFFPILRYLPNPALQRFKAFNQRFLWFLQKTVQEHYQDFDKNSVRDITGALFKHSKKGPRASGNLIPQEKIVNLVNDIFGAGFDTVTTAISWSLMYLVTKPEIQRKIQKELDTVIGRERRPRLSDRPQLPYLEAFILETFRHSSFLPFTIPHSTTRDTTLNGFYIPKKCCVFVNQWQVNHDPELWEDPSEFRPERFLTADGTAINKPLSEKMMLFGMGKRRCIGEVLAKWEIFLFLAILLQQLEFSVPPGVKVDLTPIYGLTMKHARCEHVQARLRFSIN
Procedure: (§1) In the pre-incubation step, HLMs (1.2 mg/ml) were pre-incubated with different furanocoumarin concentrations in the presence of NADPH for various time periods at 37°C. […] The final incubation volume was 320.0 µl. At the conclusion of a 10 min incubation, the reaction was stopped by the addition of a 10% TCA solution. The incubation mixture was extracted by a SPE tube, and the radioactivity in the eluant was counted in a liquid scintillation counter as described earlier.
(§2) The observed in vitro rate constant (kobs) was calculated using the slopes of linear regression analyses from natural logarithm (Ln) percentage remaining activity against pre-incubation time plots. The maximum inactivation rate constant (kinact) was calculated using the non-linear regression analyses of plots of the inactivator concentrations against kobs values. […] The plotting was performed using the GraphPad Prism version 5.04 (GraphPad Software, San Diego, CA).

[2] = rats, cited from earlier work
[3] = molecular target: ethoxyresorufin-O-deethylase; set-up: method as in Cai et al., 1993; details: mice liver microsomes; ref Cai et al., 1993; cited from earlier work
human CYP 1A2 isozyme = molecular target: human CYP 1A2 isozyme; set-up: method as in Kang et al., 2011; details: mechanism-based inhibition; ref Kang et al., 2011; cited from earlier work
CYP1A2 [4] = molecular target: T1, CYP1A2; assay: Caffeine-N-demethylase assay with 14C-caffeine in human liver microsomes, IC50 determination
Procedure: Incubation was conducted at 37°C in a metabolic incubator with a 60 cycles/min shaking rate. At the conclusion of 10 min incubation, the reaction was terminated by the addition of 10% TCA solution (50.0 µl). The incubation mixture was centrifuged at 4,000×g. An aliquot (300.0 µl) of the supernatant was applied to a 3.0 ml Sigma-Aldrich Superclean ENVI-Carbon solid phase extraction (SPE) tube (0.25 g, 80–100 mesh). […] The eluant was collected into a scintillation vial. After the addition of 15.0 ml scintillation cocktail, the radioactivity in the vial was counted in a liquid scintillation counter. The results were expressed as residual counts of the control incubation.
CYP 1A2 activity inhibition was plotted against log furanocoumarin concentration after normalizing the inhibition data from 0–100%. The resulting inhibition-concentration curves were fitted separately to a four-parameter logistic function to determine the IC50 values. Curve fitting was performed using the GraphPad Prism version 5.04 (GraphPad Software, San Diego, CA). The IC50 represented the concentration of the furanocoumarin chemical to evoke a half maximal inhibition of the CYP 1A2 activity.

[5] = cited from earlier work
CYP1A2 [6] = molecular target: T1, CYP1A2; assay: Pre-incubation time- and furanocoumarin concentration-dependent inhibition of caffeine metabolism in HLMs; details: for KI: HLMs 1.2 mg/ml, pre-incubation with NADPH, CYP 1A2 inactivation
Procedure: as §1, §2

[7] = molecular target: 7-ethoxycoumarin deethylase; set-up: method as in Tinel et al., 1987; details: HLMs; ref Tinel et al., 1987; cited from earlier work
[8] = molecular target: benzo(a)pyrene hydroxylase; set-up: method as in Tinel et al., 1987; details: HLMs; ref Tinel et al., 1987; cited from earlier work
[9] = Caffeine pharmacokinetics in saliva/plasma of untreated human volunteers (baseline); assay type: in vivo; details: caffeine 200 mg single oral dose
Procedure: Male human volunteers, between 21 and 30 years old and living in the Metro Vancouver area, were recruited for the study. The volunteers had to meet specific eligibility criteria: not smoking, use medication, consume alcohol heavily or have any health concerns which may affect the test results. […] The participants were also asked to refrain from consuming solid foods 3.0 h prior to the study. The study protocol was approved by the Simon Fraser University Office of Research Ethics with approval number 2012s0565 and registration number ISRCTN83028296.
This study adopted a non-randomized, single-blinded, and crossover design in which each subject acted as their own control ([Sheriffdeen et al., 2019]). […] In the ARFP extract treatment study, the same group of volunteers was used after a 4 days washout period. […] Saliva samples were collected at 0.5, 1.0, 1.5, 2.0, 2.5, 3.0, 4.0, 6.0, 8.0, 12.0, 24.0, 36.0, and 48.0 h post-dosing. All saliva samples were stored in the dark at freezing temperature until they were ready for extraction and HPLC-UV analysis.
The saliva samples were thawed at room temperature, mixed by vortexing for 30 s, and centrifuged for 10 min at 4,000×g. Exactly 200.0 µl aliquot of the saliva sample was removed and spiked with 100.0 µl of the internal standard (ISTD) benzotriazole (50.0 μg/ml). […]
The following pharmacokinetic parameters were determined: the Tmax (time to reach peak plasma level) and Cmax (concentration of peak plasma level) were determined by visual inspection. The AUC0-inf (area under plasma concentration-time curve from zero to infinity) was determined by non-compartmental analysis using the PK Solver software ([Zhang et al., 2010]). The AUC0-inf was determined using the log-linear trapezoidal rule from dosing time to last time point and extrapolated to infinity by dividing the last concentration with the elimination rate constant. The AUC ratio was calculated by dividing the AUC0-inf after ARFP extract pretreatment with the AUC0-inf before ARFP extract pretreatment.

[10] = cited from earlier work; remark: listed apart in the source

In the case of `COc1c2ccoc2c(OC)c2oc(=O)ccc12` [ISOP, isopimpinellin], the KI (CYP1A2 [1]) is given as 4.48 ± 0.56 µM, the Tmax ([2]; oral dose of C. monnieri herbal product, ref Li et al., 2014) is given as 1.1 ± 0.3 h and the Tmax ([2]; oral dose of Toddalia asiatica herbal product, ref Liu et al., 2012) is given as 1.3 ± 0.3 h. For the same compound, the IC50 [3] was 1.9 µM, the KI (human CYP 1A2 isozyme) was 1.2 µM and the kinact (human CYP 1A2 isozyme) was 0.34 min⁻¹. It also gave an IC50 (CYP1A2 [4]) of 0.29 µM.

In the case of `COc1c2ccoc2cc2oc(=O)ccc12` [5-MOP, 5-methoxypsoralen], the Tmax ([5]; PUVA patients, ref Shephard et al., 1999) is listed as 2.8 ± 0.8 h, the Tmax ([5]; healthy humans, ref Stolk et al., 1981) is listed as 3.0 ± 0.6 h and the IC50 [3] is listed as 2.3 µM. The IC50 (CYP1A2 [4]) was 0.13 µM, the KI (CYP1A2 [6]) was 3.73 ± 3.66 µM and the kinact (CYP1A2 [6]; human, human liver microsomes, probe caffeine (6.4 µM non-labeled + 0.2 µCi 14C-caffeine)) was 0.00583 s⁻¹.

In the case of `COc1c2occc2cc2ccc(=O)oc12` [8-MOP, 8-methoxypsoralen], the IC50 [7] is given as roughly 25 µM, the IC50 [8] is given as roughly 25 µM and the KI (CYP1A2 [6]) is given as 0.78 ± 0.32 µM.

In the case of `Cn1c(=O)c2c(ncn2C)n(C)c1=O` [Caffeine, caffeine], the “Tmax UT” value ([9]; plasma (from saliva), untreated volunteers of the study group of that line) is reported as 0.8 h, the Cmax ([9]; male, human, plasma (calculated from saliva concentrations), po, 200 mg, untreated volunteers) is reported as 5.1 µg/mL and the AUC(0-inf) ([9]; male, human, plasma (calculated from saliva concentrations), po, 200 mg, untreated volunteers, read-out: AUC0-inf UT) is reported as 33.5 to 55.8 µg·h/mL. The AUC ([10]; 12 human volunteers, 167 mg orally, ref Fuhr et al., 1993) was 28.5 ± 14.9 µg·h/mL, the AUC ([10]; healthy volunteers, 5 mg/kg dose, mean ± SD, ref Kamimori et al., 1995) was 60.8 ± 23.7 µg·h/mL and the “Time to reach the peak concentration in the blood” value ([10]; single oral dose, ref Tang-Liu et al., 1983) was no more than 1.0 h.
